Test results: ChEMBL document CHEMBL1201862, “PubChem BioAssay data set” (2004)
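Exposure lasted 48 hours, with cells grown in 96-well plates and compounds tested at five concentrations. GI50 marks 50% less growth.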 Calls of active or inactive are those of the source. Cut-off read from the data, not from the text of the source: active = GI50 up to about 1.1 µM and inactive = higher.

How the values were obtained:
Assay in all cases: inhibition of tumour cell growth, NCI panel, 48 h
SK-OV-3 = tested on: SK-OV-3
U-251 = tested on: U-251
HOP-92 = tested on: HOP-92
HCT-15 = tested on: HCT-15
SK-MEL-5 = tested on: SK-MEL-5
NCI-H522 = tested on: NCI-H522
786-0 = tested on: 786-0
HOP-62 = tested on: HOP-62
HCC 2998 = tested on: HCC 2998
SW-620 = tested on: SW-620
UACC-62 = tested on: UACC-62
RPMI-8226 = tested on: RPMI-8226
HCT-116 = tested on: HCT-116
T47D = tested on: T47D
IGROV-1 = tested on: IGROV-1
SF-295 = tested on: SF-295
HT-29 = tested on: HT-29
MOLT-4 = tested on: MOLT-4
NCI-H226 = tested on: NCI-H226
MDA-MB-435 = tested on: MDA-MB-435
TK-10 = tested on: TK-10
COLO 205 = tested on: COLO 205
CCRF-CEM = tested on: CCRF-CEM
SF-268 = tested on: SF-268
RXF 393 = tested on: RXF 393
LOX IMVI = tested on: LOX IMVI
KM12 = tested on: KM12
SF-539 = tested on: SF-539
MCF7 = tested on: MCF7
ACHN = tested on: ACHN
NCI/ADR-RES = tested on: NCI/ADR-RES
UACC-257 = tested on: UACC-257
DU-145 = tested on: DU-145
EKVX = tested on: EKVX
OVCAR-5 = tested on: OVCAR-5
A549 = tested on: A549
MDA-N = tested on: MDA-N
SNB-19 = tested on: SNB-19
K562 = tested on: K562
NCI-H23 = tested on: NCI-H23
SNB-75 = tested on: SNB-75
SN12C = tested on: SN12C
Malme-3M = tested on: Malme-3M
OVCAR-4 = tested on: OVCAR-4
SK-MEL-2 = tested on: SK-MEL-2
OVCAR-8 = tested on: OVCAR-8
PC-3 = tested on: PC-3
M14 = tested on: M14
SR = tested on: SR
CAKI-1 = tested on: CAKI-1
OVCAR-3 = tested on: OVCAR-3
SK-MEL-28 = tested on: SK-MEL-28
MDA-MB-231 = tested on: MDA-MB-231
NCI-H460 = tested on: NCI-H460

Structure (SMILES): Clc1ccc2[nH]c(CC3CCCC3)nc2c1
- GI50 (SK-OV-3): 22.3 µM (inactive)
- GI50 (U-251): 17.6 µM (inactive)
- GI50 (HOP-92): 12.9 µM (inactive)
- GI50 (HCT-15): 6.87 µM
- GI50 (SK-MEL-5): 11 µM (inactive)
- GI50 (NCI-H522): 5.74 µM (inactive)
- GI50 (786-0): 16.6 µM (inactive)
- GI50 (HOP-62): 15.6 µM (inactive)
- GI50 (HCC 2998): 20 µM (inactive)
- GI50 (SW-620): 22.4 µM (inactive)
- GI50 (UACC-62): 15.8 µM (inactive)
- GI50 (RPMI-8226): 12.1 µM (inactive)
- GI50 (HCT-116): 16.1 µM (inactive)
- GI50 (T47D): 17.9 µM (inactive)
- GI50 (IGROV-1): 4.29 µM (inactive)
- GI50 (SF-295): 16.1 µM (inactive)
- GI50 (HT-29): 12.2 µM (inactive)
- GI50 (MOLT-4): 11 µM (inactive)
- GI50 (NCI-H226): 17.7 µM (inactive)
- GI50 (MDA-MB-435): 6.52 µM (inactive)
- GI50 (TK-10): 28.5 µM (inactive)
- GI50 (COLO 205): 14.2 µM (inactive)
- GI50 (CCRF-CEM): 26.2 µM (inactive)
- GI50 (SF-268): 19.3 µM (inactive)
- GI50 (RXF 393): 14.7 µM (inactive)
- GI50 (LOX IMVI): 15.8 µM (inactive)
- GI50 (KM12): 14.5 µM (inactive)
- GI50 (SF-539): 21.4 µM (inactive)
- GI50 (MCF7): 6.61 µM (inactive)
- GI50 (ACHN): 17.1 µM (inactive)
- GI50 (NCI/ADR-RES): 13.8 µM (inactive)
- GI50 (UACC-257): 88.1 µM (inactive)
- GI50 (DU-145): 20.9 µM (inactive)
- GI50 (EKVX): 17.5 µM (inactive)
- GI50 (OVCAR-5): 24.5 µM (inactive)
- GI50 (A549): 21.7 µM (inactive)
- GI50 (MDA-N): 10 µM (inactive)
- GI50 (SNB-19): 23.4 µM (inactive)
- GI50 (K562): 3.14 µM (inactive)
- GI50 (NCI-H23): 15.1 µM (inactive)
- GI50 (SNB-75): 24.4 µM (inactive)
- GI50 (SN12C): 16.9 µM (inactive)
- GI50 (Malme-3M): 25.5 µM (inactive)
- GI50 (OVCAR-4): 14.9 µM (inactive)
- GI50 (SK-MEL-2): 17.9 µM (inactive)
- GI50 (OVCAR-8): 25.6 µM (inactive)
- GI50 (PC-3): 20.1 µM (inactive)
- GI50 (M14): 18.3 µM (inactive)
- GI50 (SR): 2.45 µM (inactive)
- GI50 (CAKI-1): 3.31 µM (inactive)
- GI50 (OVCAR-3): 6 µM (inactive)
- GI50 (SK-MEL-28): 22.8 µM (inactive)
- GI50 (MDA-MB-231): 17.7 µM (inactive)
- GI50 (NCI-H460): 17.6 µM (inactive)
